pKd: −log10 of the molar value.
What was measured:
[1] = target: T1, STAT3^127–722 protein (Homo sapiens, UniProt P40763); assay: Surface plasmon resonance (SPR) assay; type: binding
T1 construct: made in house
Description: Surface plasmon resonance (SPR) analysis was conducted with a Biacore T200 instrument (GE Healthcare) with CM5 sensor chip (GE Healthcare). To test N4 binding of STAT3^127–722 protein, serially diluted concentrations of N4 were injected into the flow system. Experiments were conducted using phosphate buffered saline (PBS) and the analyte was injected at the flow rate of 30 μL/min. The association time was 60 s and the dissociation time was 30 s. Since N4 was dissolved in PBS containing 5% dimethyl sulfoxide and a solvent correction assay was performed to adjust the results. STAT3^127–722 protein was immobilized on the sensor chip (CM5) using the amine-coupling method according to standard protocols. N4 or Stattic at various concentrations were injected into the flow system. […] The KD values were calculated with the kinetics and affinity analysis option of Biacore T200 plus evaluation software (version 3.0).

[2] = system: Pan02 cells; assay: EMT markers by immunofluorescence and western blot; type: cell-based; conditions: IF and WB, 24 h
Description: Fig. 8 N4 reverses EMT phenotype and shapes the microenvironment of PDAC. A IF staining was performed to detected the level of E-cadherin (red) and vimentin (green) after PAN02 treatment with the indicated concentrations of N4 for 24 h. DAPI (blue) was used to stain Nuclei. Scale bar, 20 μm. B Western blot assays were used to examine the expression of E-cadherin, N-cadherin and vimentin after PAN02 treatment with N4 for 24 h. C IHC of vimentin, F4/80 and α-SMA in tumor tissue from orthotopic models. Data represents the mean ± SD; *P < 0.05, **P < 0.01, ***P < 0.001, ****P < 0.0001, n.s. not significant by one-way ANOVA followed by multiple-comparison tests. D Quantification of vimentin, F4/80 and α-SMA in pancreatic tumors from PDAC. Scale bar, 50 μm.
Western blotting was performed as previously described. Briefly, cells were treated with indicated compounds and then lysed by boiling. […]
Immunofluorescence staining was performed as previously described. […] Images were recorded by confocal microscopy (Leica).

[3] = system: PAN02-luc; assay: Orthotopic pancreatic cancer tumor model; type: in vivo, C57BL/6 mice
Description: Fig. 7 N4 inhibits tumor growth in an orthotopic pancreatic cancer model. C57BL/6 mice were injected the tail of the pancreas with luciferase-expressing PAN02 cells (PAN02-luc) in matrigel and tumor growth was assessed (A) and quantified (B) by bioluminescent imaging weekly. Data represent the mean ± SD; *P < 0.05, **P < 0.01, ***P < 0.001, ****P < 0.0001, n.s. not significant by one-way ANOVA followed by multiple-comparison tests. (n = 5 mice per group) C After 4 weeks, mice were sacrificed and the pancreas were imaged. The tumor of pancreas were photographed (D) and weighted (E), scale bar, 0.5 cm.
Briefly, specimens of tumor tissue from xenograft models and orthotopic models were fixed with 4% paraformaldehyde solution at 4 °C overnight. […] Then, according to the manufacturer’s instructions (SK-4100; Vector laboratories), the avidin-biotin peroxidase complex was used, followed by colorimetric detection using DAB. Finally, hematoxylin was used to counterstain the sections and coverslips were mounted.
C57BL/6 mice, male, 4–6 week old were obtained from the Animal Center of East China Normal University. All animal experimental protocols were approved by the Animal Investigation Committee of the Institute of Biomedical Sciences, East China Normal University. PAN02 cells that stably expressed luciferase (PAN02-luc) were embedded in Matrigel (BD Biosciences) were injected with 5 × 10^5 in the tail of the pancreas. On the next day (day 0), the mice were subjected to bioluminescent imaging and divided into four groups according to the luciferase luminescence value. Mice were treated with intraperitoneal injection of indicated compound or drug. Tumor growth was analyzed once a week by an IVIS Imaging System (Xenogen Corporation, Alameda, CA) and end of study tumor weight was determined immediately postmortem. […] Images and measurements of bioluminescent signals were acquired and analyzed using Living Image and Xenogen software.

T1 sequence (P40763 127-722): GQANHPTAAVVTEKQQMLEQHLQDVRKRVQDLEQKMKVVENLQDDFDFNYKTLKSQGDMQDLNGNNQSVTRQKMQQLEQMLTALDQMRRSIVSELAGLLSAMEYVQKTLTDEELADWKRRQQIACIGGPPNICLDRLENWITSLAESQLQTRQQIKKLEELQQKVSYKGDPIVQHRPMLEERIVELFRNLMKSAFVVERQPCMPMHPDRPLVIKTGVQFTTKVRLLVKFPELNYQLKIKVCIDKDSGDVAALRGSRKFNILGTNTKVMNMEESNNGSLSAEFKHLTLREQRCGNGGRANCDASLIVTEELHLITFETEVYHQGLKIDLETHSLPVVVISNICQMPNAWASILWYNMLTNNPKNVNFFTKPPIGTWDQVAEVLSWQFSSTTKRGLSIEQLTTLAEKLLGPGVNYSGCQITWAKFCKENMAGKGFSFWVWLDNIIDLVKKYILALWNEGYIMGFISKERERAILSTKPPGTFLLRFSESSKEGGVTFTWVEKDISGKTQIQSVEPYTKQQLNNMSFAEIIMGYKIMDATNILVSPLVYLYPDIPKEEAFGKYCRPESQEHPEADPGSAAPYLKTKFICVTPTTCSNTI

COc1cc2c(cc1C(=O)Nc1cccc3cccnc13)CCC1C(C)(C)C(=O)C(C#N)=C[C@]21C (some centres unmarked) [N4]
pKd ([1]; SPR, STAT3^127–722 immobilized on CM5 chip, 25 °C): 5.98 | improvement of binding affinities to STAT3 than Stattic ([1]; in FP and SPR experiments): approximately tenfold improvement | epithelial and mesenchymal markers [2]: upregulation of E-cadherin, and downregulation of N-cadherin and vimentin | expression of stromal cells marker α-SMA in vivo ([3]; IHC of tumor tissue): drastically suppressed | expression of vimentin in vivo ([3]; IHC of tumor tissue): significantly suppressed | number of TAM (F4/80+ macrophages) ([3]; IHC of tumor tissue): significantly decreased | tumor volume suppressed compared with the control group ([3]; week 4, 10 mg/kg/d): 97.34% | tumor volume suppressed compared with the control group ([3]; week 4, 20 mg/kg/d): 98.88%

— article PMC7906907, “Targeting STAT3 by a small molecule suppresses pancreatic cancer progression” (Oncogene, 2021)
